These results are taken from patent US20250049785A1, “METHODS FOR THE TREATMENT OF GLIOBLASTOMA THAT MINIMIZE RADIATION DAMAGE IN SUSCEPTIBLE PATIENTS” (Rhode Island Hospital, priority 2021, published 2025).

SMILES strings stand for the structures.

The test system of data set [1] is IDH-1 wild-type glioblastoma. As to the kind of experiment: Case presentation: elderly glioblastoma patient treated with involved-field radiotherapy and concomitant daily TMZ. The class given is in vivo, human. The source says: A right-handed person had developed confusion, word-finding difficulty and slurred speech. These symptoms included making phone calls to their spouse and asking their non-sensible questions. They lost their words intermittently and forgot names of their family members on a number of occasions. They recounted old stories as if they were perseverating and answered questions in the affirmative without actually hearing the question. Their mood also became more irritable. Their past medical history was notable for a skull fracture after fall from horseback riding when they were a teenager. The patient had undergone a neurocognitive evaluation from a memory disorder clinic in a major academic medical center and they had been diagnosed with a non-specific memory disorder.
The patient underwent a gross total resection of the mass 4 days after the MRI. […] Immunohistochemical staining was negative for IDH-1 R132H mutation but positive for ATRX, GFAP, Olig-2 and p53.
The radiation administered consisted of standard external beam radiotherapy. The left temporal postsurgical cavity as well as the ipsilateral putamen and globus pallidus were included in the maximum 6,000 cGy isodose line (see FIG. 2). The brainstem was covered in the 3,000 cGy isodose line while the contralateral putamen and globus pallidus received up to 1,800 cGy of radiation.
They became more forgetful and developed imbalance. […]

The conditions of data set [2]: bilateral hippocampal sparing whole brain radiation with memantine; cited from earlier work.

As for `Cn1nnc2c(C(N)=O)ncn2c1=O` [TMZ, temozolomide], the “cognitive status after treatment” value in data set [1] (after radiation (up to 6,000 cGy) and TMZ, patient with diffuse Lewy body disease at autopsy) was “rapidly deteriorated”. Besides, the “haematological toxicity limiting chemotherapy” value in data set [1] (person, concomitant daily TMZ with involved-field radiotherapy, only two weeks of chemotherapy administered) is “low blood counts”.

For `CC12CC3CC(C)(C1)CC(N)(C3)C2` [memantine], in data set [2], the “neurocognitive function versus traditional fractionated whole brain radiotherapy” value is recorded as “preserves neurocognitive function better”.
